Laboratory results reported in patent US11666642B2, “PDE5 compositions and methods for immunotherapy” (Obsidian Therapeutics, Inc., priority 2017, dated 2023).

What was measured:
[1] = tested on: hPDE5 mutants fused to GFP in HCT116 cells; assay: Response to Sildenafil (5 or 0.5 μM) over time, MFI by FACS; format: cell-based, human
Experimental: Mean fluorescence intensity (MFI) was measured by FACS. […] The destabilizing mutation coefficient was calculated as the fold change in GFP intensity in the hPDE5 mutant constructs compared to the hPDE5 wildtype construct (OT-hPDE5N-019) in the absence of the ligand. Destabilizing mutation coefficient less than 1 are desirable. Stabilization ratios greater than 1 are desired in DDs. The results and stabilization ratios for time course experiments with 5 or 0.5 μM are presented in Table 30 and Table 31 respectively.

[2] = tested on: hPDE5 mutants fused to GFP in HCT116 cells; assay: Vardenafil dose response 48 hours, fold change in GFP MFI over DMSO; format: cell-based, human; conditions: 0.1 and 0.3 micro molar
Experimental: Combination mutants were generated as described in Example 9. […] Mean fluorescence intensity (MFI) of GFP was measured by FACS.

## OT-hPDE5N-020: construct consisting of E535-Q860 amino acids of hPDE5 with the R732L mutant, SG linker, AcGFP; single mutant construct
[1]; 0-72 hours, HCT116
  stabilization ratios over time, Sildenafil 0.5 μM: greater stabilization
[1]; Sildenafil 0.5 μM, 0 hours
  MFI: 2727
[1]; Sildenafil 0.5 μM, 4 hours
  MFI: 4127
  Stabilization ratio: 1.51
[1]; Sildenafil 0.5 μM, 8 hours
  MFI: 5461
  Stabilization ratio: 2.00
[1]; Sildenafil 0.5 μM, 12 hours
  MFI: 9058
  Stabilization ratio: 3.32
[1]; Sildenafil 0.5 μM, 16 hours
  MFI: 14469
  Stabilization ratio: 5.31
[1]; Sildenafil 0.5 μM, 20 hours
  MFI: 16142
  Stabilization ratio: 5.92
[1]; Sildenafil 0.5 μM, 24 hours
  MFI: 20524
  Stabilization ratio: 7.53
[1]; Sildenafil 0.5 μM, 48 hours
  MFI: 45754
  Stabilization ratio: 16.78
[1]; Sildenafil 0.5 μM, 72 hours
  MFI: 58786
  Stabilization ratio: 21.56
[1]; Sildenafil 5 μM, 0 hours
  MFI: 2668
[1]; Sildenafil 5 μM, 4 hours
  MFI: 4236
  Stabilization ratio: 1.59
[1]; Sildenafil 5 μM, 8 hours
  MFI: 5672
  Stabilization ratio: 2.13
[1]; Sildenafil 5 μM, 12 hours
  MFI: 9097
  Stabilization ratio: 3.41
[1]; Sildenafil 5 μM, 16 hours
  MFI: 14855
  Stabilization ratio: 5.57
[1]; Sildenafil 5 μM, 20 hours
  MFI: 15529
  Stabilization ratio: 5.82
[1]; Sildenafil 5 μM, 24 hours
  MFI: 20955
  Stabilization ratio: 7.85
[1]; Sildenafil 5 μM, 48 hours
  MFI: 46604
  Stabilization ratio: 17.47
[1]; Sildenafil 5 μM, 72 hours
  MFI: 58479
  Stabilization ratio: 21.92
[2]
  ligand dependent stabilization (fold change in MFI over DMSO) at lower doses of Vardenafil: observed at lower doses i.e. 0.1 and 0.3 micro molar concentrations of Vardenafil
